Data from patent US10231954B2, “Neurodegenerative therapies” (LYTIX BIOPHARMA AS, priority 2014, dated 2019).

Tests used:
PKD1 = target: T1, PKD1 (Homo sapiens, UniProt Q15139); test: Kinase profiling PKD1; type: biochemical
T1 sequence (Q15139 1-912): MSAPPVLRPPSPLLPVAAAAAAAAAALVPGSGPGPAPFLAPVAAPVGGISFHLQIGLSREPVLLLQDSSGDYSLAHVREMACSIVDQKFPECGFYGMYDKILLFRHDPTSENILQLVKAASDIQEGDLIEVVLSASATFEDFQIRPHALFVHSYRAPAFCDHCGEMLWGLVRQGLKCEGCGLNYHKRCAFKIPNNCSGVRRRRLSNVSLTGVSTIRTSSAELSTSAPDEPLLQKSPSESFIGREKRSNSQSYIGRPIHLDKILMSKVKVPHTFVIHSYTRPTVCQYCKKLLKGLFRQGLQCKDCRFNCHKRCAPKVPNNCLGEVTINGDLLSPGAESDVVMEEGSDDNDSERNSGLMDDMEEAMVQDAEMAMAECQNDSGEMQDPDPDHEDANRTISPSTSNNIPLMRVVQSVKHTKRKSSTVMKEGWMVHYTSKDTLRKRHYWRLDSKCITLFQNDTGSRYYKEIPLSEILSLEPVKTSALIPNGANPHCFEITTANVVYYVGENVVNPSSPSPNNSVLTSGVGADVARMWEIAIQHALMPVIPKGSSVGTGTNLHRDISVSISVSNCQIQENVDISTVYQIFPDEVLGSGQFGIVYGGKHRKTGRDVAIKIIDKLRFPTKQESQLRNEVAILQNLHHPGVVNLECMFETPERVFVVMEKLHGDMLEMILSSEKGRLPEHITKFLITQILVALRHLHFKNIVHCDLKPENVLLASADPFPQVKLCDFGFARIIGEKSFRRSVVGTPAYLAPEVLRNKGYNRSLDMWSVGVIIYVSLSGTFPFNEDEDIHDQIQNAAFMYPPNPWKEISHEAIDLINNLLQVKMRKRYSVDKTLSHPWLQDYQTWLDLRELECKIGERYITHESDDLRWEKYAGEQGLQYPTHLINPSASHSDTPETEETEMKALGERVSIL
Excerpt: (§1) Any value less that 25 is considered to be highly significant inhibition.

TAK1 = target: T2, TAK1 (Homo sapiens, UniProt O43318); test: Kinase profiling TAK1; type: biochemical
T2 sequence (O43318 1-303 limits assumed): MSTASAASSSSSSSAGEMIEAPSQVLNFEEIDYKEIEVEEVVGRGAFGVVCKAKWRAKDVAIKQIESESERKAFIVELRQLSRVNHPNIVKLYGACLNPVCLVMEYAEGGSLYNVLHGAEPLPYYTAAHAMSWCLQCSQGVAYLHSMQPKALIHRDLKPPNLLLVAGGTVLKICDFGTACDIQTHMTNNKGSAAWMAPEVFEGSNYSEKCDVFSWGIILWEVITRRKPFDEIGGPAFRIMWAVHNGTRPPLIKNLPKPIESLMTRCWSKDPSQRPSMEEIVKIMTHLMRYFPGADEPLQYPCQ
T2 sequence (Q15750 437-504 partner limits assumed): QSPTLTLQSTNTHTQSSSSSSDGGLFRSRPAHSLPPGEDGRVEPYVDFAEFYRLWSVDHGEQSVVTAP
Excerpt: as §1

EPH-A2 = EPH-A2 (Homo sapiens, UniProt P29317); test: Kinase profiling EPH-A2; type: biochemical
Excerpt: as §1

ROCK 2 = ROCK 2 (Homo sapiens, UniProt O75116); test: Kinase profiling ROCK 2; type: biochemical
Excerpt: as §1

PKCa = PKCa (Homo sapiens, UniProt P17252); test: Kinase profiling PKCa; type: biochemical
Excerpt: as §1

RIPK2 = RIPK2 (Homo sapiens, UniProt O43353); test: Kinase profiling RIPK2; type: biochemical
Excerpt: as §1

PIM1 = PIM1 (Homo sapiens, UniProt P11309); test: Kinase profiling PIM1; type: biochemical
Excerpt: as §1

PKA = PKA (Homo sapiens, UniProt P17612); test: Kinase profiling PKA; type: biochemical
Excerpt: as §1

AMPK (hum) = test: Kinase profiling AMPK (hum); type: biochemical, human
Excerpt: as §1

IRAK4 = target: T3, IRAK4 (Homo sapiens, UniProt Q9NWZ3); test: Kinase profiling IRAK4; type: biochemical
T3 sequence (Q9NWZ3 1-460): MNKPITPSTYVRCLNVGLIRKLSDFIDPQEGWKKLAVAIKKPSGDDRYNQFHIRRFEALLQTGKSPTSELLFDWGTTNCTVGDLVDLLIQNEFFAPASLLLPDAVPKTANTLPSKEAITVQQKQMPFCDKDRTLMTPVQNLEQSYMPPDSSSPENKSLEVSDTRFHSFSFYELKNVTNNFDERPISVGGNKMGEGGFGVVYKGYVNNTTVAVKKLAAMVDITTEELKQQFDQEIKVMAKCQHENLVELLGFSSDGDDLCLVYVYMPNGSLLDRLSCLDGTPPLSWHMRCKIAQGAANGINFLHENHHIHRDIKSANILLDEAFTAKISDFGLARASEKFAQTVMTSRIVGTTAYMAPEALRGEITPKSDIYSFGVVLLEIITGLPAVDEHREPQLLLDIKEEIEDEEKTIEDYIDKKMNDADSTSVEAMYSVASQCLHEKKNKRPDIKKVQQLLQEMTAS
Excerpt: as §1

JAK2 = JAK2 (Homo sapiens, UniProt O60674); test: Kinase profiling JAK2; type: biochemical
Excerpt: as §1

p38a MAPK = p38a MAPK (Homo sapiens, UniProt Q16539); test: Kinase profiling p38a MAPK; type: biochemical
Excerpt: as §1

p38g MAPK = target: T4, p38g MAPK (Homo sapiens, UniProt P53778); test: Kinase profiling p38g MAPK; type: biochemical; details: 100 micromolar inhibitor concentration; 100 is no change
T4 sequence (P53778 1-367): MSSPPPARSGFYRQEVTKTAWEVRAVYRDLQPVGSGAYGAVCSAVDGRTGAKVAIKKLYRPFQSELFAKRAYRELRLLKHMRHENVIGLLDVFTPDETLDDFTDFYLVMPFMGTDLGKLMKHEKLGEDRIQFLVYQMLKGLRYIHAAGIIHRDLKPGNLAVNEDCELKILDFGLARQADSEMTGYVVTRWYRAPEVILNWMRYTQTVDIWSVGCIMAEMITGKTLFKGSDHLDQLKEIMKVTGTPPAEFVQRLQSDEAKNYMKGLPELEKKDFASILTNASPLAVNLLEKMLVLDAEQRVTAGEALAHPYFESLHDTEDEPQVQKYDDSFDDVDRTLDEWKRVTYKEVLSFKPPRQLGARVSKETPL
Excerpt: as §1

[1] = 100 micromolar inhibitor concentration, 100 is no change
[2] = 100 micromolar inhibitor, 100 = no change

p38a MAPK, sequence (Q16539 whole entry): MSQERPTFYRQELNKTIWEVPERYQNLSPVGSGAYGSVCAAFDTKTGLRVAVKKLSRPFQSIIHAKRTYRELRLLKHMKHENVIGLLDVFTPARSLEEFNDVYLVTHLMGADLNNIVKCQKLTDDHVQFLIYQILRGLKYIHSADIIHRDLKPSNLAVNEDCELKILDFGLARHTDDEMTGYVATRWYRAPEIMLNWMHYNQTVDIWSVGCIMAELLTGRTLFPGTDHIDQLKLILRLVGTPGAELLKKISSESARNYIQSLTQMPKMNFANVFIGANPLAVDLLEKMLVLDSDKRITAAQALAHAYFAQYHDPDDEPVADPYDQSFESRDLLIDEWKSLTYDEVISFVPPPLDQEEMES
ROCK 2, sequence (O75116 whole entry, species assumed): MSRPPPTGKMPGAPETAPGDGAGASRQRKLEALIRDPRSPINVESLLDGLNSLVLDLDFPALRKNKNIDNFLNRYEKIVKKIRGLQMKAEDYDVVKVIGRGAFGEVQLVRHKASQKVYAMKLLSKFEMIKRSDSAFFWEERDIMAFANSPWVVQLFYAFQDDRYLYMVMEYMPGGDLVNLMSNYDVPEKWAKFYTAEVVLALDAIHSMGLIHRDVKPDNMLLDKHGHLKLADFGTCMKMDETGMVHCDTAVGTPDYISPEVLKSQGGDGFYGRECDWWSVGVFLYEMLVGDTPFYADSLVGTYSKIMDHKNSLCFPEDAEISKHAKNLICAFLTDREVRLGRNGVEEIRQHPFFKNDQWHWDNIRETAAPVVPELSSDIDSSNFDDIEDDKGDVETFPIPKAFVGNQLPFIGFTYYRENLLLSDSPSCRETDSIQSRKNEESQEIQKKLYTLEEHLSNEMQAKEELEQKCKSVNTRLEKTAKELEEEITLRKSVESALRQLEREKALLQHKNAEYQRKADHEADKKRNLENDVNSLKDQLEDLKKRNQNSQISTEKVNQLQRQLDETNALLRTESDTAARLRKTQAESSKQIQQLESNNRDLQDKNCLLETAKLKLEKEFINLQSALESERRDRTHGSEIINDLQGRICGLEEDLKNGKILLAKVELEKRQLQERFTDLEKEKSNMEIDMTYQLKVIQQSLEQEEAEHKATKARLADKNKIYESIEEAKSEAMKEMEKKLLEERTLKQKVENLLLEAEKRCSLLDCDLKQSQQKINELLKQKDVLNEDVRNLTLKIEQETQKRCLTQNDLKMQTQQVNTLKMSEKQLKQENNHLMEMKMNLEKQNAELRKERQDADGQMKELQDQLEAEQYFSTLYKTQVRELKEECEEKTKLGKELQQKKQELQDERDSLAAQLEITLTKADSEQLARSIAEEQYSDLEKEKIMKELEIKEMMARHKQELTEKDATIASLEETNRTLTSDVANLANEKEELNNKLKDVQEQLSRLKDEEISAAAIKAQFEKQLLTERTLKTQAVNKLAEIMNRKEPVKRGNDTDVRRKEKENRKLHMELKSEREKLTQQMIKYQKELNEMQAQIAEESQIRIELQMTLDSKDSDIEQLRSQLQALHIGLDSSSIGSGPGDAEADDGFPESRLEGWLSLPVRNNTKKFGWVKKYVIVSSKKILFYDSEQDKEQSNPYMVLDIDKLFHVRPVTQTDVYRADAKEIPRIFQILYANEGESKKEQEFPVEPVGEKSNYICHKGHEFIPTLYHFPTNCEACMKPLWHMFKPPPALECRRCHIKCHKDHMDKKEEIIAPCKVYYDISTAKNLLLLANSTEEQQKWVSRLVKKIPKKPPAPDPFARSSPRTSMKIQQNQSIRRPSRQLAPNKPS
EPH-A2, sequence (P29317 24-976, species assumed): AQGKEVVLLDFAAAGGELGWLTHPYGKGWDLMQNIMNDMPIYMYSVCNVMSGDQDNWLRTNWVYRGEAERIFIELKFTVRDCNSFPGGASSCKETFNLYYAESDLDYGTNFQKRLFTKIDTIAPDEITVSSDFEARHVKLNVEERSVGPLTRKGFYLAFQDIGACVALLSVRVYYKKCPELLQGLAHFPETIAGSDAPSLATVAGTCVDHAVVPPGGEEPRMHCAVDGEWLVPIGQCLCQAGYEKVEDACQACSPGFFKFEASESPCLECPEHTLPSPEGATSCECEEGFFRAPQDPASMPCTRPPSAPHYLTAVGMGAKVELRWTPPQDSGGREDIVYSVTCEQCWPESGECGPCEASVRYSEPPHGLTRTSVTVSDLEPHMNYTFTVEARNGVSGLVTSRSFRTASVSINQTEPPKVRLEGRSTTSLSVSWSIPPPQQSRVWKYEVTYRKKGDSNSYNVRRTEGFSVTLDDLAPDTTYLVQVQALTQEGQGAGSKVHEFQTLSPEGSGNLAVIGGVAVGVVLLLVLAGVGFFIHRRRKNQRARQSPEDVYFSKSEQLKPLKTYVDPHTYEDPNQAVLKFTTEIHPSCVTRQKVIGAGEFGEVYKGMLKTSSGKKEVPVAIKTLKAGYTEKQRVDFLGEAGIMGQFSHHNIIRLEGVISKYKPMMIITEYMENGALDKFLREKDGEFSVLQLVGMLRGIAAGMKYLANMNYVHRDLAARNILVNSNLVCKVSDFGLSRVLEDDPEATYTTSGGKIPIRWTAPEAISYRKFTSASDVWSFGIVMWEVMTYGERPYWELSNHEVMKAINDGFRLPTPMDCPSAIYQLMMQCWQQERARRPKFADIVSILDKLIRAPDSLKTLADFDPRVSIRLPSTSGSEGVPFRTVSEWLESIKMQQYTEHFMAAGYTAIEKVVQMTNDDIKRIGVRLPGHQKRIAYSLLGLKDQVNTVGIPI
JAK2, sequence (O60674 whole entry, species assumed): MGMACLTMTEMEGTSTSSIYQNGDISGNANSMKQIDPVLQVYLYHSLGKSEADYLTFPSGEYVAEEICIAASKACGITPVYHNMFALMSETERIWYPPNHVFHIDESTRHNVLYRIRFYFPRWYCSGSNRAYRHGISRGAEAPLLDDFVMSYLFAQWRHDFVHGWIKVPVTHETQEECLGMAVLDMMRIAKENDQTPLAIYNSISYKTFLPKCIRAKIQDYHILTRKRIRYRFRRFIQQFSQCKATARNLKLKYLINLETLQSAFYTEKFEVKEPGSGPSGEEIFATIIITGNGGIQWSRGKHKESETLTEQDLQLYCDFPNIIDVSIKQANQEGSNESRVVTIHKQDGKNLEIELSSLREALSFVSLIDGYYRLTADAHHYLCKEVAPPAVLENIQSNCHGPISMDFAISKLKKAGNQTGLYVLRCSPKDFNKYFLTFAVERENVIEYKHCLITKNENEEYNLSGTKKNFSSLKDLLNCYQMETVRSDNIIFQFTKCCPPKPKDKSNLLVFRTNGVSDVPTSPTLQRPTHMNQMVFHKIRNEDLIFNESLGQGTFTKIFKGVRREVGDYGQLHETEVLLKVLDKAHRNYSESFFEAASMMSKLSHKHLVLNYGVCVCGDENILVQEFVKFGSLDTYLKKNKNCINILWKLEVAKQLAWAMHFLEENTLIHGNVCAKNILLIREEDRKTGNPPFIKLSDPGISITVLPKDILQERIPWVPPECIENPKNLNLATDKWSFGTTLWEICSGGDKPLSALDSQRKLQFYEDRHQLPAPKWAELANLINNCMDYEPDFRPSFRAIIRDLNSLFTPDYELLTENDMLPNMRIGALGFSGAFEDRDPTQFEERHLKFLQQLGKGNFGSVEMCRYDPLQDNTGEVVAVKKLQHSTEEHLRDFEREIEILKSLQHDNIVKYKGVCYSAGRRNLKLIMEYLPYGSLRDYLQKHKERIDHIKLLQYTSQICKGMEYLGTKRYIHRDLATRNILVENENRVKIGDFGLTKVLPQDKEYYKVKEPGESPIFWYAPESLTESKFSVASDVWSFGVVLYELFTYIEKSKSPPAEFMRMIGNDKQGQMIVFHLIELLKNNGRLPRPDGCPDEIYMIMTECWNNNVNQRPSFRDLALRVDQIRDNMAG
PIM1, sequence (P11309 whole entry, species assumed): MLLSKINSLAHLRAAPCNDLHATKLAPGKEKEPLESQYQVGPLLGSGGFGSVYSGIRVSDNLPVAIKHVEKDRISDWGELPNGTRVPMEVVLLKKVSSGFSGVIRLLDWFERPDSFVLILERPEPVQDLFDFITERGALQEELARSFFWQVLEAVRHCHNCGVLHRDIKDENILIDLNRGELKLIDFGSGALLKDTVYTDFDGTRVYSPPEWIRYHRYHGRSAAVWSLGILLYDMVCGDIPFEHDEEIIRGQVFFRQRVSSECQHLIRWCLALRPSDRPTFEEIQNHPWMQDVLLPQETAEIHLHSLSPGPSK

Row | Compound | residual kinase activity, PKD1 (PKD1; [1]) | residual kinase activity, p38g MAPK (p38g MAPK) | residual kinase activity, ROCK 2 (ROCK 2; [1]) | residual kinase activity, PKCa (PKCa; [1]) | residual kinase activity, PKA (PKA; [1]) | residual kinase activity, p38a MAPK (p38a MAPK; [1]) | further results
1 | CC(=O)Nc1nc2ccc([N+](=O)[O-])cc2s1 [Compound 13-10] |  |  |  |  |  |  | remaining activity at 100 µM (PKD1; 100 micromolar inhibitor concentration, 100 is no change, read-out: residual kinase activity, PKD1): 82%; remaining activity at 100 µM (TAK1; 100 micromolar inhibitor concentration, 100 is no change, read-out: residual kinase activity, TAK1): 58%; remaining activity at 100 µM (EPH-A2; 100 micromolar inhibitor concentration, 100 is no change, read-out: residual kinase activity, EPH-A2): 65%; remaining activity at 100 µM (ROCK 2; 100 micromolar inhibitor concentration, 100 is no change, read-out: residual kinase activity, ROCK 2): 96%; remaining activity at 100 µM (PKCa; 100 micromolar inhibitor concentration, 100 is no change, read-out: residual kinase activity, PKCa): 93%; remaining activity at 100 µM (RIPK2; 100 micromolar inhibitor concentration, 100 is no change, read-out: residual kinase activity, RIPK2): 27%; remaining activity at 100 µM (PIM1; 100 micromolar inhibitor concentration, 100 is no change, read-out: residual kinase activity, PIM1): 81%; remaining activity at 100 µM (PKA; 100 micromolar inhibitor concentration, 100 is no change, read-out: residual kinase activity, PKA): 99%; residual kinase activity, AMPK (hum) (AMPK (hum); [1]): 70; remaining activity at 100 µM (IRAK4; 100 micromolar inhibitor concentration, 100 is no change, read-out: residual kinase activity, IRAK4): 8%; remaining activity at 100 µM (JAK2; 100 micromolar inhibitor concentration, 100 is no change, read-out: residual kinase activity, JAK2): 91%; remaining activity at 100 µM (p38a MAPK; 100 micromolar inhibitor concentration, 100 is no change, read-out: residual kinase activity, p38a MAPK): 103%
2 | COc1cccc(NC(=O)Nc2nc3cc(O)ccc3s2)c1 [Compound 13-62] |  |  |  |  |  |  | residual kinase activity, PKD1 (PKD1; [2]): 41; residual kinase activity, TAK1 (TAK1; [2]): 11; residual kinase activity, EPH-A2 (EPH-A2; [2]): 81; residual kinase activity, ROCK 2 (ROCK 2; [2]): 11; residual kinase activity, PKCa (PKCa; [2]): 102; residual kinase activity, RIPK2 (RIPK2; [2]): 6; residual kinase activity, PIM1 (PIM1; [2]): 14; residual kinase activity, PKA (PKA; [2]): 104; residual kinase activity, AMPK (hum) (AMPK (hum); [2]): 23; residual kinase activity, IRAK4 (IRAK4; [2]): 17; residual kinase activity, JAK2 (JAK2; [2]): 31; residual kinase activity, p38a MAPK (p38a MAPK; [2]): 21
3 | COc1ccc2sc(NC(=O)c3ccc(NC(C)=O)cc3)nc2c1 [MS:LY-2-77] | 114 | 121 | 96 | 97 | 102 | 109 | 
4 | COc1ccc2sc(NC(=O)c3cccc(NC(C)=O)c3)nc2c1 [MS:LY-2-85] | 49 | 80 | 29 | 63 | 98 | 89 | 
5 | CC(=O)Nc1ccc(C(=O)Nc2nc3cc(O)ccc3s2)cc1 [MS:LY-2-87] | 52 | 93 | 38 | 59 | 93 | 73 | 
6 | CC(=O)Nc1cccc(C(=O)Nc2nc3cc(O)ccc3s2)c1 [MS:LY-2-89] | 22 | 64 | 11 | 48 | 87 | 18 | 
